Source: patent US20210038607A1, “OXADIAZOLYLTHIOPHENE DERIVATIVES USEFUL AS HISTONE DEACETYLASE INHIBITORS” (Karus Therapeutics Limited, priority 2018, published 2021)

Tests used:
Human HDAC4 = molecular target: T1, Human HDAC4 (Homo sapiens, UniProt P56524); experiment: HDAC4 biochemical assay, class IIa-specific substrate; conditions: read-out: HDAC Isoform IC50 (nM) 4
T1 construct: amino acids 627-1085 with N-terminal GST tag; GST (N); host or cells: baculovirus expression system
Summary of the method: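 GST-tagged human HDAC4 (aa 627-1085, baculovirus) at 0.004 ng/ul was incubated 30 min at room temperature with 50 μM class IIa-specific substrate BOC-Lys(trifluoroacetyl)-AMC in Tris-HCl pH 8.0 buffer with BSA, 1% DMSO. Developer then released AMC, read at 360/460 nm.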

Human HDAC11 = molecular target: T2, Human HDAC11 (Homo sapiens, UniProt Q96DB2); experiment: HDAC11 biochemical assay, class IIa-specific substrate; conditions: read-out: HDAC Isoform IC50 (nM) 11
T2 construct: Human HDAC11 (full length); His (N); host or cells: baculovirus expression system
T2 sequence (Q96DB2 1-347): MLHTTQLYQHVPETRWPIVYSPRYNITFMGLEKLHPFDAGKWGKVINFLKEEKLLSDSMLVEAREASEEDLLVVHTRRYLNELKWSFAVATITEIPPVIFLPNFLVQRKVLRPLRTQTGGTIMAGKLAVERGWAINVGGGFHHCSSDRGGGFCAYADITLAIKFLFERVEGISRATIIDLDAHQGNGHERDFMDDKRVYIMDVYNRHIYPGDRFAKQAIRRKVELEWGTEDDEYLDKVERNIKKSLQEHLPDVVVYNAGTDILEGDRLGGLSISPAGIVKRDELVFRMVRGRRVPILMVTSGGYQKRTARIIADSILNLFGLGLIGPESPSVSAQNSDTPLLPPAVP
Summary of the method: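 Full-length N-His human HDAC11 from baculovirus, 5 ng/μl, incubated with 50 μM Boc-Lys(trifluoroacetyl)-AMC for 30 min at 30 °C. Buffer: 50 mM Tris-HCl pH 8.0, 137 mM NaCl, 2.7 mM KCl, 1 mM MgCl2, 1 mg/mL BSA, 1% DMSO. Developer releases AMC; fluorescence read at 360/460 nm.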

Human HDAC1 = molecular target: T3, Human HDAC1 (Homo sapiens, UniProt Q13547); experiment: HDAC1 biochemical assay, AMC-labeled peptide substrate; conditions: read-out: HDAC Isoform IC50 (nM) 1
T3 construct: full length with C-terminal His-tag and C-terminal FLAG-tag; His (C); FLAG (C); host or cells: baculovirus expression system
Summary of the method: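 Baculovirus-expressed full-length human HDAC1 with His and FLAG tags, 0.3 ng/ul, incubated 1 h at 30° C with compound and 50 μM RHKK(Ac)AMC in Tris pH 8.0 buffer with BSA and 1% DMSO. Developer then releases AMC from deacetylated substrate; fluorescence read at 360/460 nm.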

Human HDAC10 = molecular target: T4, Human HDAC10 (Homo sapiens, UniProt Q969S8); experiment: HDAC10 biochemical assay, AMC-labeled peptide substrate; conditions: read-out: HDAC Isoform IC50 (nM) 10
T4 construct: Human HDAC10 (a.a. 1-481); GST (N); His (C); host or cells: baculovirus expression system
T4 sequence (Q969S8 1-481): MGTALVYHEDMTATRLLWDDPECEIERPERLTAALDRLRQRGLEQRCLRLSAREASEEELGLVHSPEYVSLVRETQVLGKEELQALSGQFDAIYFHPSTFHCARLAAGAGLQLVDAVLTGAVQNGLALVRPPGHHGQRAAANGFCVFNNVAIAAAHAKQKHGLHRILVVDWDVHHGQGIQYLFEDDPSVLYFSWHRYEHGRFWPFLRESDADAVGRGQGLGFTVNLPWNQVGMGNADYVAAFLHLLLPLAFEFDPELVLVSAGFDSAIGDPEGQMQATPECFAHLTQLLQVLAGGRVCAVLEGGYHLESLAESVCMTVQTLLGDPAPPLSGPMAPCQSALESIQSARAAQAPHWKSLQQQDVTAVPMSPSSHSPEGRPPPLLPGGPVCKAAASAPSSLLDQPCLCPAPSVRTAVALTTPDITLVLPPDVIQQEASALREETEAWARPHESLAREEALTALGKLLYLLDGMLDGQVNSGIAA
Summary of the method: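 Baculovirus-expressed GST/His-tagged human HDAC10 (aa 1-481), 12 ng/ul, incubated with 50 μM RHKK(Ac)AMC in Tris pH 8.0 buffer with BSA and 1% DMSO, 2 h at 30 °C. Developer then releases AMC, read at 360/460 nm.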

Human HDAC2 = molecular target: T5, Human HDAC2 (Homo sapiens, UniProt Q92769); experiment: HDAC2 biochemical assay, AMC-labeled peptide substrate; conditions: read-out: HDAC Isoform IC50 (nM) 2
T5 construct: full length with C-terminal GST-tag; GST (C); host or cells: baculovirus expression system
Summary of the method: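 Full-length human HDAC2 with C-terminal GST tag, baculovirus-expressed, at 0.07 ng/ul with 50 μM RHKK(Ac)AMC substrate in Tris-HCl pH8.0 buffer with BSA, 1% DMSO final. Incubated 1 hour at 30° C with compounds, then developer added; fluorescence read at 360/460 Ex/Em.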

Human HDAC5 = molecular target: T6, Human HDAC5 (Homo sapiens, UniProt Q9UQL6); experiment: HDAC5 biochemical assay, class IIa-specific substrate; conditions: read-out: HDAC Isoform IC50 (nM) 5
T6 construct: full length with C-terminal His tag, MW=51.1 kDa; His (C); host or cells: baculovirus expression system
Summary of the method: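 Full-length C-terminal His-tagged HDAC5 from baculovirus (0.05 ng/ul) incubated 30 min at room temperature with 50 μM Boc-Lys(trifluoroacetyl)-AMC and compound, Tris pH 8.0 buffer with BSA, 1% DMSO. Developer then releases AMC; fluorescence 360/460 nm.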

T1 sequence (P56524 627-1084 limits assumed): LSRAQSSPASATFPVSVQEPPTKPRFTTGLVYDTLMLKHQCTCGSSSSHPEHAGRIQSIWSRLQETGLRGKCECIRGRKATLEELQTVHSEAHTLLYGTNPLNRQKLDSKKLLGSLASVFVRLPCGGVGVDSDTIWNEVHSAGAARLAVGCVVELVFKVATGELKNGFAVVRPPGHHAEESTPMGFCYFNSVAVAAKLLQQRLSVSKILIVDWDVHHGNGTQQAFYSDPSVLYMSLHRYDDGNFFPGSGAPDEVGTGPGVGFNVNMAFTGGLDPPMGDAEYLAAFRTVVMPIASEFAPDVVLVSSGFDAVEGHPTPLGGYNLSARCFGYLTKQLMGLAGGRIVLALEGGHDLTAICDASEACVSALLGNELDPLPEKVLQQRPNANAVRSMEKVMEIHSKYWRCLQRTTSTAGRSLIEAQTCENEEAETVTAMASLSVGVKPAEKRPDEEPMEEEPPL
T3 sequence (Q13547 whole entry, canonical isoform): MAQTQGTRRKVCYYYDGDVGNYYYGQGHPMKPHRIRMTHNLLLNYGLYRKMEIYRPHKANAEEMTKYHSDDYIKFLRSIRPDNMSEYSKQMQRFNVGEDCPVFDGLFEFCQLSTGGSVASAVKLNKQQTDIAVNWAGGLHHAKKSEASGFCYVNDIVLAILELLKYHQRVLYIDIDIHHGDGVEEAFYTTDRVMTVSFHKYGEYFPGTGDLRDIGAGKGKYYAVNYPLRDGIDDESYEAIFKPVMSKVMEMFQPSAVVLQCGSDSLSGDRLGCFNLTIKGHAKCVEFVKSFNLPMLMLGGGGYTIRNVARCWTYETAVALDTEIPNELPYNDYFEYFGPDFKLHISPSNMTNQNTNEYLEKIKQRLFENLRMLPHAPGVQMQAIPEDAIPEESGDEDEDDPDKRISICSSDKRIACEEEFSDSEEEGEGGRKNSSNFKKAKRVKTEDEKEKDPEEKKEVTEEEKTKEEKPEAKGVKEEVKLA
T6 sequence (Q9UQL6 656-1122 limits assumed): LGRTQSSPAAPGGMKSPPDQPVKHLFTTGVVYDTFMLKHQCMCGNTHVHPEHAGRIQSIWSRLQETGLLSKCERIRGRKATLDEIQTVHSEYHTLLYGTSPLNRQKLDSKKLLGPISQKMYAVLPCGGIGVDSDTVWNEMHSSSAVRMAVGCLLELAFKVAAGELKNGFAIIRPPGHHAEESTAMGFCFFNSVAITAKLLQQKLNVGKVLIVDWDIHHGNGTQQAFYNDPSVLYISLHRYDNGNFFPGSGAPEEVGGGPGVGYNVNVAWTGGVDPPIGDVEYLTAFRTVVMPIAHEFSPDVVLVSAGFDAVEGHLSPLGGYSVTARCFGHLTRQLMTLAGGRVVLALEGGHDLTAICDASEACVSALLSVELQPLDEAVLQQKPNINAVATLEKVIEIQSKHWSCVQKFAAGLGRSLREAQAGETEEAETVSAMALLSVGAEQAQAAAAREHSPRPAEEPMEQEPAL
T5 sequence (Q92769 whole entry, canonical isoform): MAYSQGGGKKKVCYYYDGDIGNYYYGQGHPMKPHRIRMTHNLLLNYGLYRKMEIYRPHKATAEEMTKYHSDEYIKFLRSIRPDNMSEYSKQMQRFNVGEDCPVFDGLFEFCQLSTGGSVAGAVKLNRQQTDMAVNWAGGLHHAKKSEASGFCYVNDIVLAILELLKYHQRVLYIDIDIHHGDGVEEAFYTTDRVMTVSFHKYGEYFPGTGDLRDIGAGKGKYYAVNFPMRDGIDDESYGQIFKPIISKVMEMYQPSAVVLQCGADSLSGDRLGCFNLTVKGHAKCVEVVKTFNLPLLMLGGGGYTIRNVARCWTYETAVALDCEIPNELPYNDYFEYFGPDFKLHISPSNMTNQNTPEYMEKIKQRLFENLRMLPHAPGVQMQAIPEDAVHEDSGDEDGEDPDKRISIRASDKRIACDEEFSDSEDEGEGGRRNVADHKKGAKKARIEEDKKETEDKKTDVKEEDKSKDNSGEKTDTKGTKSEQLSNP

Structure (SMILES)	IC50 (Human HDAC4)	IC50 (Human HDAC11)	IC50 (Human HDAC1)	IC50 (Human HDAC10)	IC50 (Human HDAC2)	IC50 (Human HDAC5)
O=C(c1ccc(N(Cc2ccc(-c3noc(C(F)(F)F)n3)s2)c2cnccn2)nn1)N1CCCCC1 [Example FG, 6-(Piperidine-1-carbonyl)-N-(pyrazin-2-yl)-N-({5-[5-(trifluoromethyl)-1,2,4-oxadiazol-3-yl]thiophen-2-yl}methyl)pyridazin-3-amine]	≤ 500 nM	> 10000 nM	> 10000 nM	> 10000 nM	> 10000 nM	≤ 500 nM
O=C(c1nccnc1N(Cc1ccc(-c2noc(C(F)(F)F)n2)s1)c1cnccn1)N1CC(O)(C(F)(F)F)C1 [Example GQ, 1-{3-[(Pyrazin-2-yl)({5-[5-(trifluoromethyl)-1,2,4-oxadiazol-3-yl]thiophen-2-yl}methyl)amino]pyrazine-2-carbonyl}-3-(trifluoromethyl)azetidin-3-ol]	≤ 10000 nM	> 10000 nM	> 10000 nM	> 10000 nM	> 10000 nM	≤ 10000 nM
CC(=O)Nc1cnnc(N(Cc2ccc(-c3noc(C(F)(F)F)n3)s2)c2cnccn2)c1 [Example FM, N-{6-[(Pyrazin-2-yl)({5-[5-(trifluoromethyl)-1,2,4-oxadiazol-3-yl]thiophen-2-yl}methyl)amino]pyridazin-4-yl}acetamide]	≤ 1000 nM	> 10000 nM	≤ 10000 nM	> 10000 nM	> 10000 nM	≤ 500 nM
O=C(O)c1cnnc(N(Cc2ccc(-c3noc(C(F)(F)F)n3)s2)c2cnccn2)c1 [Example DW, 6-[(Pyrazin-2-yl)({5-[5-(trifluoromethyl)-1,2,4-oxadiazol-3-yl]thiophen-2-yl}methyl)amino]pyridazine-4-carboxylic acid]	≤ 10000 nM	> 10000 nM	> 10000 nM	> 10000 nM	> 10000 nM	≤ 10000 nM
O=C(c1ccc(N(Cc2ccc(-c3noc(C(F)(F)F)n3)s2)c2cnccn2)nn1)N1CC[S+]([O-])CC1 [Example FD, 4-{6-[(Pyrazin-2-yl)({5-[5-(trifluoromethyl)-1,2,4-oxadiazol-3-yl]thiophen-2-yl}methyl)amino]pyridazine-3-carbonyl}-1lambda4-thiomorpholin-1-one]	≤ 500 nM	> 10000 nM	≤ 10000 nM	> 10000 nM	> 10000 nM	≤ 500 nM
O=C(c1cnnc(N(Cc2ccc(-c3noc(C(F)(F)F)n3)s2)c2cnccn2)c1)N1CCOCC1 [Example EB, 5-(Morpholine-4-carbonyl)-N-(pyrazin-2-yl)-N-({5-[5-(trifluoromethyl)-1,2,4-oxadiazol-3-yl]thiophen-2-yl}methyl)pyridazin-3-amine]	≤ 10000 nM	> 10000 nM	> 10000 nM	> 10000 nM	> 10000 nM	≤ 1000 nM
O=C(c1cnnc(N(Cc2ccc(-c3noc(C(F)(F)F)n3)s2)c2cnccn2)c1)N1C2CCC1COC2 [Example GB, 5-{3-Oxa-8-azabicyclo[3.2.1]octane-8-carbonyl}-N-(pyrazin-2-yl)-N-({5-[5-(trifluoromethyl)-1,2,4-oxadiazol-3-yl]thiophen-2-yl}methyl)pyridazin-3-amine]	≤ 10000 nM	> 10000 nM	> 10000 nM	> 10000 nM	> 10000 nM	≤ 1000 nM
FC(F)(F)c1nc(-c2ccc(CN(c3cnccn3)c3cnccn3)s2)no1 [Example BA, N-(Pyrazin-2-yl)-N-({5-[5-(trifluoromethyl)-1,2,4-oxadiazol-3-yl]thiophen-2-yl}methyl)pyrazin-2-amine]	≤ 1000 nM	> 10000 nM	> 10000 nM	> 10000 nM	> 10000 nM	≤ 1000 nM
FC(F)(F)c1nc(-c2ccc(CN(c3cnccn3)c3cc(CN4CCOCC4)ccn3)s2)no1 [Example GI, N-{4-[(Morpholin-4-yl)methyl]pyridin-2-yl}-N-({5-[5-(trifluoromethyl)-1,2,4-oxadiazol-3-yl]thiophen-2-yl}methyl)pyrazin-2-amine]	≤ 10000 nM	> 10000 nM	> 10000 nM	> 10000 nM	> 10000 nM	≤ 10000 nM
FC(F)(F)c1cnnc(N(Cc2ccc(-c3noc(C(F)(F)F)n3)s2)c2cnccn2)c1 [Example EF, N-(Pyrazin-2-yl)-5-(trifluoromethyl)-N-({5-[5-(trifluoromethyl)-1,2,4-oxadiazol-3-yl]thiophen-2-yl}methyl)pyridazin-3-amine]	≤ 10000 nM	> 10000 nM	> 10000 nM	> 10000 nM	> 10000 nM	≤ 10000 nM
FC(F)(F)c1cnc(N(Cc2ccc(-c3noc(C(F)(F)F)n3)s2)c2cnccn2)cn1 [Example BK, N-(Pyrazin-2-yl)-5-(trifluoromethyl)-N-({5-[5-(trifluoromethyl)-1,2,4-oxadiazol-3-yl]thiophen-2-yl}methyl)pyrazin-2-amine]	≤ 10000 nM	> 10000 nM	> 10000 nM	> 10000 nM	> 10000 nM	≤ 10000 nM
FC(F)(F)c1nc(-c2ccc(CN(c3cnccn3)c3ccc(CN4CCOCC4)nn3)s2)no1 [Example FN, 6-[(Morpholin-4-yl)methyl]-N-(pyrazin-2-yl)-N-({5-[5-(trifluoromethyl)-1,2,4-oxadiazol-3-yl]thiophen-2-yl}methyl)pyridazin-3-amine]	≤ 1000 nM	> 10000 nM	> 10000 nM	> 10000 nM	> 10000 nM	≤ 1000 nM
O=C(c1cnnc(N(Cc2ccc(-c3noc(C(F)(F)F)n3)s2)c2cnccn2)c1)N1CC(C(F)F)C1 [Example GK, 5-[3-(Difluoromethyl)azetidine-1-carbonyl]-N-(pyrazin-2-yl)-N-({5-[5-(trifluoromethyl)-1,2,4-oxadiazol-3-yl]thiophen-2-yl}methyl)pyridazin-3-amine]	≤ 1000 nM	> 10000 nM	≤ 10000 nM	> 10000 nM	> 10000 nM	≤ 1000 nM
COC1CN(C(=O)c2ccc(N(Cc3ccc(-c4noc(C(F)(F)F)n4)s3)c3cnccn3)nn2)C1 [Example DR, 6-(3-Methoxyazetidine-1-carbonyl)-N-(pyrazin-2-yl)-N-({5-[5-(trifluoromethyl)-1,2,4-oxadiazol-3-yl]thiophen-2-yl}methyl)pyridazin-3-amine]	≤ 500 nM	> 10000 nM	≤ 10000 nM	> 10000 nM	> 10000 nM	≤ 500 nM
